From paper PMC5557986 (Scientific Reports, 2017)
pIC50, pKi: −log10 of the molar value.

Columns and labels:
[1] = target: Clostridium perfringens NanJ NA (CpNA) (Clostridium perfringens, UniProt A0A0H2YT71); assay type: biochemical
[2] = target: A/RI/5+/1957(H2N2) NA (N2) (Influenza A virus, UniProt Q194T1); test: biochemical; assay type: biochemical, influenza A/RI/5+/1957(H2N2)
[3] = test system: Streptococcus 6646K NA (StrepNA); assay type: biochemical
N2 = conditions: cited from earlier work
influenza NA = conditions: cited from earlier work

Clostridium perfringens NanJ NA (CpNA), sequence (A0A0H2YT71 27-1173 limits assumed): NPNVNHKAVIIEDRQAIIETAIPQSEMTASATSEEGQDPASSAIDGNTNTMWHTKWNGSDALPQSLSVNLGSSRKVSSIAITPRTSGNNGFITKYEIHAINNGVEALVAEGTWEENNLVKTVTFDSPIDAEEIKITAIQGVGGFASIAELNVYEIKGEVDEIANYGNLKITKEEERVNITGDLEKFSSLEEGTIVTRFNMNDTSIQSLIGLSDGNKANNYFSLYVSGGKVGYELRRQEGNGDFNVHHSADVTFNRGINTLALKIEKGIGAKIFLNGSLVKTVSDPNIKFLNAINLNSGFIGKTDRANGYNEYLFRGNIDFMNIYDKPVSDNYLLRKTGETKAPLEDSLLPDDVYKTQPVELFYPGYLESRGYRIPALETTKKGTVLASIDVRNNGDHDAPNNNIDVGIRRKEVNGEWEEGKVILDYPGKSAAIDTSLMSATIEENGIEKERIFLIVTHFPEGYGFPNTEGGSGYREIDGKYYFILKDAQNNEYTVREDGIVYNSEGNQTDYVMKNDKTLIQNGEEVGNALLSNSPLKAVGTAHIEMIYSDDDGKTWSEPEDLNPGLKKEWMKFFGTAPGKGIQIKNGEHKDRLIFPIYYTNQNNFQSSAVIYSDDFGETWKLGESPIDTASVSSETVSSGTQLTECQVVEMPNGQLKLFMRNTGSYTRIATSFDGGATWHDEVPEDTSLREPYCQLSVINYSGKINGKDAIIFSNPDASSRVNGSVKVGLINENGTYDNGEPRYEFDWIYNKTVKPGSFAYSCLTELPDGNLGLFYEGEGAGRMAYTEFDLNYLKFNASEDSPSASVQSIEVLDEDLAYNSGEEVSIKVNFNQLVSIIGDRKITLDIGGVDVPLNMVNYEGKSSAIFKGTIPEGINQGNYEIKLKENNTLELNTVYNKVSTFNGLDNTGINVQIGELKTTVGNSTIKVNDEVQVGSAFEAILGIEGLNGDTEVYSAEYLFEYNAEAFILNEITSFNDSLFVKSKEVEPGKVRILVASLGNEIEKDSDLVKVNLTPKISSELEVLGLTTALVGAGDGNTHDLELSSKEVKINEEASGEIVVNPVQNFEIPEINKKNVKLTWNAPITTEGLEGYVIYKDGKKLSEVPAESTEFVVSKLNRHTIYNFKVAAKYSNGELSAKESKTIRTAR

| Molecule | pIC50 [2] | pKi [2] | inhibition of influenza NA (influenza NA) | also measured |
| --- | --- | --- | --- | --- |
| CC(=O)N[C@H]1[C@H]([C@H](O)[C@H](O)CO)O[C@H](S(=O)(=O)O)C[C@@H]1O [7a, 4-Acetamido-1-sulfo-1,2,4-trideoxy-D-glycero-D-galacto-octopyranose] | 5.05 | 5.61 | – | potency for CpNA inhibition relative to eqPO3H [1]: 8.5 fold; pIC50 ([1]; read-out: CpNA IC50): 4.43; potency for inhibition of influenza N2 relative to eqPO3H [2]: 40 fold; pIC50 [3]: 5.43 |
| CC(=O)N[C@H]1[C@H]([C@H](O)[C@H](O)CO)O[C@@H](S(=O)(=O)O)C[C@@H]1O [7b, 4-Acetamido-1-sulfo-1,2,4-trideoxy-D-glycero-D-galacto-octopyranose] | 3.92 | 4.47 | – | – |
| CC(=O)N[C@@H]1C=C[C@H](S(=O)(=O)O)O[C@H]1[C@H](O)[C@H](O)CO [8b, 4-Acetamido-1-sufo-2,3-didehydro-1,2,3,4-tetradeoxy-D-glycero-D-galacto-octopyranose] | 3.50 | 4.06 | – | – |
| CC(=O)N[C@H]1[C@H]([C@H](O)[C@H](O)CO)OC(C(=O)O)=C[C@@H]1O [Neu4Ac2en, 2,3-dehydro-2-deoxy-N-acetylneuraminic acid] | – | – | – | pIC50 (N2): 4.72 |
| [H]/N=C(\N)N[C@H]1C=C(C(=O)O)O[C@@H]([C@H](OC)[C@H](O)CO)[C@@H]1NC(C)=O [laninamivir] | – | – | low nanomolar level | – |
| CCOC(=O)C1=C[C@@H](OC(CC)CC)[C@H](NC(C)=O)[C@@H](N)C1 [oseltamivir] | – | – | low nanomolar level | – |
| CC(=O)N[C@H]1[C@H]([C@H](O)[C@H](O)CO)OC(C(=O)O)=C[C@@H]1N=C(N)N [zanamivir] | – | – | low nanomolar level | – |
| peramivir | – | – | low nanomolar level | – |
